Measured values taken from patent US11324768B2, “Applications of triacetyl-3-hydroxyl phenyl adenosine in treating vascular inflammations or improving vascular endothelium functions” (priority 2016, dated 2022).

What was measured:
Type in all cases: in vivo
ApoE−/− mice = assay: Blood lipid levels in high-fat-fed ApoE−/− mice; settings: 200 mg/kg, 8 weeks, high-fat diet
Method: (§1) After 1 week of adaptive feeding, the animals were randomly divided into 7 groups according to body weight: normal control group, model control group A769662 (30 mg/kg) administration group, metformin (260 mg/kg) administration group, IMM-H007 low, medium, and high administration groups (50, 100, 200 mg/kg), 8 in each group, and were given a high-fat diet (78.6% basal diet, 10% lard, 1.0% cholesterol, 10% egg yolk powder, and 0.4% bile salt), and simultaneously administered intragastrically at a dose of 0.1 ml/10 g body weight, and were continuously administered and fed for 8 weeks to establish an atherosclerosis model.
(1) Effect of IMM-H007 on Blood Lipid Levels in ApoE−/− Mice: Total Cholesterol (TC), Triglyceride (TG), Low-Density Lipoprotein Cholesterol (LDL), High-Density Lipoprotein Cholesterol (HDL), and Free Fatty Acid (FFA)
(§2) Operated according to kit instructions

TNF-α = assay: Serum inflammatory factor TNF-α in ApoE−/− mice (ELISA); parameters: unit not given here
Method: as §1, with “and simultaneously administered intragastrically at a dose of 0.1 ml/10 g” left out
(2) Effect of IMM-H007 on Serum Inflammatory Factors TNF-α and VCAM-1 in ApoE−/− Mice
as §2

thoracic aorta = assay: Endothelial function of thoracic aorta in ApoE−/− mice (vascular ring, Ach / SNP relaxation)
Method: as §1
The mice were anesthetized. The thoracic aorta was quickly taken, after carefully stripping the surrounding tissue, was cut into a vascular ring with a length of about 3 mm. The vascular ring was carefully hung on a tonotransducer, given an initial tension of 0.5 g and equilibrated for 90 minutes or more. During the equilibration process, the fluid was replaced every 20 minutes, aeration was maintained and the temperature was maintained at 37° C. The vascular ring was equilibrated for about 1 hour and stimulated twice with saturated KCl (60 mM) to detect whether the blood vessel was active. After vasoconstriction was stabilized, KCl was washed away immediately. After the last replacement of the fluid, the vascular ring was equilibrated for 20 minutes, given phenylephrine 1 μM to stimulate vasoconstriction, and after vasoconstriction was stabilized, it was cumulatively administered with acetylcholine (Ach, 1×10^−10 to […]) and sodium nitroprusside (SNP, 10^−10 to 10^−4 M) to record the vasodilation curve. Vasodilation rate=[PE-induced vascular tone (g)-vascular tension after addition of ACh (g)][…][PE contraction-induced tension (g)-basal vascular tone (g)]×100%.

Ob/Ob obese mice = assay: Biochemical indexes in Ob/Ob obese mice; settings: 400 mg/kg
Method: After 1 week of adaptive feeding, animals were randomly divided into two groups according to body weight: model control group, and IMM-H007 group (400 mg/kg), 10 in each group, and were given normal feed and simultaneously administered intragastrically at a dose of 0.1 ml/10 g body weight, and were continuously administered and fed for 9 weeks. The changes of food intake and body weight were recorded, and routine biochemical indicators such as blood lipids and blood glucose, etc. were measured. After 9 weeks, 3 animals were taken from each group and the mesenteric arterioles were taken for measurement of vascular endothelial function in the same manner as in Example 2.
Detection Indicators (1) Routine Biochemical Indicators and (2) Vascular Endothelial Function

AMPK-eNOS pathway = assay: Mechanism of improving endothelial function (Western Blotting, total nitric oxide synthase activity in serum); settings: ApoE−/− mice
Method: as §1
The expression levels of AMPK, pAMPK, peNOS, eNOS, Caveolin-1 proteins were analyzed and measured by Western Blotting to determine the total nitric oxide synthase activity in serum.

Question: `CC(=O)OCC1OC(n2cnc3c(Nc4cccc(O)c4)ncnc32)C(OC(C)=O)C1OC(C)=O` (stereo not shown) [IMM-H007, 2′,3,′ 5′-triacetyl-N^6(3-hydroxyphenyl)adenosine] was tested. Which “High-density lipoprotein (HDL-C)” value (ApoE−/− mice) did it give?
Answer: 1.64 ± 1.15

Question: What about the “Triglyceride (TG)” value (ApoE−/− mice) of the same compound?
Answer: 1.48 ± 0.34

Question: What about the “serum TNF-α” value (TNF-α; 100 mg/kg) of the same compound?
Answer: 256.3 ± 46.4

Question: What about the “serum TNF-α” value (TNF-α; 200 mg/kg) of the same compound?
Answer: 250.2 ± 27.8

Question: And the “sodium nitroprusside endothelium-independent relaxation of aortic vessel” value (thoracic aorta; 50 mg/kg, 1 × 10^−4 M SNP)?
Answer: 97.8 ± 4.9%

Question: And the “acetylcholine endothelium-dependent relaxation of aortic vessel” value (thoracic aorta; 50 mg/kg, 1 × 10^−5 M Ach)?
Answer: 91.0 ± 2.3 %

Question: What about the “sodium nitroprusside endothelium-independent relaxation of aortic vessel” value (thoracic aorta; 50 mg/kg, 1 × 10^−5 M SNP) of the same compound?
Answer: 89.4 ± 6.8%

Question: What about the “acetylcholine endothelium-dependent relaxation of aortic vessel” value (thoracic aorta; 50 mg/kg, 1 × 10^−6 M Ach) of the same compound?
Answer: 67.5 ± 11.0 %

Question: And the “sodium nitroprusside endothelium-independent relaxation of aortic vessel” value (thoracic aorta; 50 mg/kg, 1 × 10^−6 M SNP)?
Answer: 87.2 ± 10.1%

Question: What about the “acetylcholine endothelium-dependent relaxation of aortic vessel” value (thoracic aorta; 50 mg/kg, 1 × 10^−7 M Ach) of the same compound?
Answer: 54.1 ± 18.8 %

Question: What about the “sodium nitroprusside endothelium-independent relaxation of aortic vessel” value (thoracic aorta; 50 mg/kg, 1 × 10^−7 M SNP) of the same compound?
Answer: 68.3 ± 20.5%

Question: What about the “acetylcholine endothelium-dependent relaxation of aortic vessel” value (thoracic aorta; 50 mg/kg, 1 × 10^−8 M Ach) of the same compound?
Answer: 39.2 ± 14.0%

Question: What about the “sodium nitroprusside endothelium-independent relaxation of aortic vessel” value (thoracic aorta; 50 mg/kg, 1 × 10^−8 M SNP) of the same compound?
Answer: 58.4 ± 13.8%

Question: What about the “acetylcholine endothelium-dependent relaxation of aortic vessel” value (thoracic aorta; 50 mg/kg, 1 × 10^−9 M Ach) of the same compound?
Answer: 29.3 ± 11.2%

Question: What about the “sodium nitroprusside endothelium-independent relaxation of aortic vessel” value (thoracic aorta; 50 mg/kg, 1 × 10^−9 M SNP) of the same compound?
Answer: 43.1 ± 24.6%

Question: And the “acetylcholine endothelium-dependent relaxation of aortic vessel” value (thoracic aorta; 50 mg/kg, 1 × 10^−10 M Ach)?
Answer: 11.6 ± 7.0%

Question: What about the “sodium nitroprusside endothelium-independent relaxation of aortic vessel” value (thoracic aorta; 50 mg/kg, 1 × 10^−10 M SNP) of the same compound?
Answer: 18.0 ± 16.3%

Question: What about the “acetylcholine endothelium-dependent relaxation of aortic caused by high fat” value (thoracic aorta; 50 mg/kg, compared with the model control group) of the same compound?
Answer: significantly improve

Question: And the “sodium nitroprusside endothelium-independent relaxation of aortic vessel” value (thoracic aorta; 200 mg/kg, 1 × 10^−4 M SNP)?
Answer: 97.9 ± 10.8%

Question: And the “acetylcholine endothelium-dependent relaxation of aortic vessel” value (thoracic aorta; 200 mg/kg, 1 × 10^−5 M Ach)?
Answer: 97.8 ± 8.2 %

Question: What about the “sodium nitroprusside endothelium-independent relaxation of aortic vessel” value (thoracic aorta; 200 mg/kg, 1 × 10^−5 M SNP) of the same compound?
Answer: 95.4 ± 8.5%

Question: And the “acetylcholine endothelium-dependent relaxation of aortic vessel” value (thoracic aorta; 200 mg/kg, 1 × 10^−6 M Ach)?
Answer: 87.4 ± 10.9 %

Question: And the “sodium nitroprusside endothelium-independent relaxation of aortic vessel” value (thoracic aorta; 200 mg/kg, 1 × 10^−6 M SNP)?
Answer: 94.1 ± 20.6%

Question: What about the “acetylcholine endothelium-dependent relaxation of aortic vessel” value (thoracic aorta; 200 mg/kg, 1 × 10^−7 M Ach) of the same compound?
Answer: 64.2 ± 17.7 %

Question: And the “sodium nitroprusside endothelium-independent relaxation of aortic vessel” value (thoracic aorta; 200 mg/kg, 1 × 10^−7 M SNP)?
Answer: 73.6 ± 23.3%

Question: And the “acetylcholine endothelium-dependent relaxation of aortic vessel” value (thoracic aorta; 200 mg/kg, 1 × 10^−8 M Ach)?
Answer: 47.6 ± 22.5%

Question: And the “sodium nitroprusside endothelium-independent relaxation of aortic vessel” value (thoracic aorta; 200 mg/kg, 1 × 10^−8 M SNP)?
Answer: 62.3 ± 22.7%

Question: And the “acetylcholine endothelium-dependent relaxation of aortic vessel” value (thoracic aorta; 200 mg/kg, 1 × 10^−9 M Ach)?
Answer: 31.4 ± 18.5%

Question: And the “sodium nitroprusside endothelium-independent relaxation of aortic vessel” value (thoracic aorta; 200 mg/kg, 1 × 10^−9 M SNP)?
Answer: 30.5 ± 20.8%

Question: What about the “acetylcholine endothelium-dependent relaxation of aortic vessel” value (thoracic aorta; 200 mg/kg, 1 × 10^−10 M Ach) of the same compound?
Answer: 9.4 ± 3.9%

Question: What about the “sodium nitroprusside endothelium-independent relaxation of aortic vessel” value (thoracic aorta; 200 mg/kg, 1 × 10^−10 M SNP) of the same compound?
Answer: 12.4 ± 8.4%

Question: What about the Fasting blood glucose (Ob/Ob obese mice; 4 week) of the same compound?
Answer: 6.69 ± 0.12 mmol/L

Question: What about the Fasting insulin (Ob/Ob obese mice; 4 week) of the same compound?
Answer: 1.60 ± 0.18 ng/mL

Question: And the Free fatty acid (Ob/Ob obese mice; 4 week)?
Answer: 1.06 ± 0.03 mEq/l

Question: And the Ingestion (Ob/Ob obese mice; 4 week)?
Answer: 5.48 ± 0.05 g/day

Question: What about the Low-density lipoprotein (Ob/Ob obese mice; 4 week) of the same compound?
Answer: 1.16 ± 0.04 mmol/L

Question: And the Total cholesterol (Ob/Ob obese mice; 4 week)?
Answer: 3.57 ± 0.07 mmol/L

Question: And the Triglyceride (Ob/Ob obese mice; 4 week)?
Answer: 0.69 ± 0.03 mmol/L

Question: What about the Body weight (Ob/Ob obese mice; 9 week) of the same compound?
Answer: 51.18 ± 0.67 g

Question: And the Fasting blood glucose (Ob/Ob obese mice; 9 week)?
Answer: 9.98 ± 0.51 mmol/L

Question: And the Fasting insulin (Ob/Ob obese mice; 9 week)?
Answer: 6.07 ± 0.48 ng/mL

Question: And the Free fatty acid (Ob/Ob obese mice; 9 week)?
Answer: 0.44 ± 0.07 mEq/l

Question: And the Ingestion (Ob/Ob obese mice; 9 week)?
Answer: 5.47 ± 0.08 g/day

Question: And the Low-density lipoprotein (Ob/Ob obese mice; 9 week)?
Answer: 1.70 ± 0.28 mmol/L

Question: And the Total cholesterol (Ob/Ob obese mice; 9 week)?
Answer: 4.13 ± 0.67 mmol/L

Question: And the Triglyceride (Ob/Ob obese mice; 9 week)?
Answer: 0.52 ± 0.09 mmol/L

Question: What about the NO production (AMPK-eNOS pathway) of the same compound?
Answer: increases

Question: And the AMPK-eNOS pathway (AMPK-eNOS pathway; Western Blotting)?
Answer: activation

Question: And the “activity of nitric oxide synthase” value (AMPK-eNOS pathway; serum)?
Answer: improves
